Tests used:
Format in all cases: in vivo, human
male subjects with T2DM = test: Eight week single-blind treatment study; responder defined by composite score of glycemic-lowering efficacy (FPG, fructosamine, HbA1c); details: responder = composite % reduction 1(%ΔFPG)+2(%ΔFructosamine)+1.5(%ΔHbA1c) greater than 30%, 8 weeks
Source text: The study described herein was relatively small-scale (75 male subjects with T2DM) and short-term (8 weeks of treatment). Serum and urine samples were obtained at pre-treatment baseline, and after 4 and 8 weeks of treatment with one of the following: placebo, rosiglitazone, metformin or glyburide. High information content nuclear magnetic resonance (NMR) and liquid chromatography/mass spectroscopy (LC/MS)-based metabolomic platforms, including polar metabolite and lipid profiling, were used to profile the serum and urine samples. A variety of multivariate analysis techniques were used to determine whether polar low molecular weight metabolites, lipids, or fatty acids, analyzed in readily accessible fluids can be used to predict drug responder status at week 8 based on their measurement at baseline or at week 4.
Male subjects aged 30 to 70 years with a documented history of stable T2DM for no more than 10 years duration were eligible for the study described herein if they had been previously treated with diet and exercise alone, monotherapy or low-dose combination therapy. Fasting plasma glucose (FPG) at screening could not exceed 225 mg/dL for subjects treated with diet and exercise alone or 180 mg/dL for subjects receiving monotherapy or low-dose combination therapy. HbA1c was required to be within 5.7 to 10.0% with the following conditions; subjects with HbA1c between 5.7 and 9% must have been diabetic for less than 5 years and treated with mono or low dose combination therapy and have a FBG of 125 to 180 mg/dL, and subjects with HbA1c between 9.1 and 10.0% must not have been treated with combination therapy. In addition, body mass index must have been within the range of 25 to 37.5 kg/m^2, for subjects aged […] years, or 25 to 35.0 kg/m^2 for subjects aged 56 to 70 years. […]
Originally, efficacy response was defined as a FPG decrease of greater than 30 mg/dl. […] Fructosamine, whose half-life is determined by that of albumin, provides a measure of integrated glucose over a period of 2-4 weeks. […]

[1] = system: inflammation associated with obesity and diabetes; test: Apparent inflammation observed in the study under rosiglitazone treatment; details: observed in this study and also reported in the literature
Source text: Serum IL-8 at baseline was higher in responders than non-responders (p=0.032) (FIG. 4C). IL-8 is an important cytokine in the inflammatory process. It is stimulated by high glucose concentrations in endothelial cells in vitro and has chemotactic activity for polymorphonuclear neutrophils (playing an important role in the pathogenesis of chronic complications of diabetes), as well as for T-lymphocyte and smooth muscle cells. Serum IL-8 level was reported to markedly increase in diabetic patients [Zozulinska, D., et al., Diabetologia 42, 117-118 (1999)]. […] Thus, it seems consistent that subjects with higher IL-8 levels were more responsive to rosiglitazone treatment.

urine citrate = test: Urine citrate measured by NMR at week 0 and week 8 in rosiglitazone responders and non-responders; details: week 8 vs week 0
Procedure: FIGS. 4A-4C show the measure of selected biomarkers in urine or serum.
Male subjects aged 30 to 70 years with a documented history of stable T2DM for no more than 10 years duration were eligible for the study described herein if they had been previously treated with diet and exercise alone, monotherapy or low-dose combination therapy. Fasting plasma glucose (FPG) at screening could not exceed 225 mg/dL for subjects treated with diet and exercise alone or 180 mg/dL for subjects receiving monotherapy or low-dose combination therapy. […]
Serum and urine samples were analyzed using various metabolomic platforms and with traditional serum biomarker (“non-omic”) measurements. Both urine and serum were measured by nuclear magnetic resonance (NMR)-based metabolic profiling. Serum samples were also analyzed by liquid chromatograph (LC)/mass spectrometry (MS) for polar metabolites and lipids, and gas chromatograph (GC)-flame ionization for fatty acids (lipidomics). […]
Citrate may play a critical role in cataplerosis (the export of mitochondrial intermediates into the cytosol and in the induction of fatty acid-derived signaling molecules) and glucose-regulated insulin release [Flamez, D. et al., Diabetes 51, 2018-2024 (2002)]. Because citrate was not quantified in plasma or liver, it is hard to pinpoint the actual biochemical context for the change in this metabolite. […]

SMILES	Fractions of responders in each treatment after eight weeks of treatment (male subjects with T2DM)	effect of treatment on apparent inflammation [1]	change in level of urine citrate after 8 week treatment, non-responder subjects (urine citrate; non-responders (n=12))	change in level of urine citrate after 8 week treatment, responder group (urine citrate; responders (n=9))
COc1ccc(Cl)cc1C(=O)NCCc1ccc(S(=O)(=O)NC(=O)NC2CCCCC2)cc1 [Glyburide, 5-chloro-N-[2-[4-(cyclohexylcarbamoylsulfamoyl)phenyl]ethyl]-2-methoxy-benzamide]	0.60	–	–	–
CN(C)C(=N)N=C(N)N [Metformin]	0.53	–	–	–
CN(CCOc1ccc(CC2SC(=O)NC2=O)cc1)c1ccccn1 (stereo not drawn) [Rosiglitazone, 5-[[4-[2-(methyl-pyridin-2-yl-amino)ethoxy]phenyl]methyl]thiazolidine-2,4-dione]	0.43	reduce apparent inflammation	did not change	did increase urine citrate (not statistically significant)
